Laboratory results: patent publication US20160106106A1, “DRUG-RESISTANT MICROBE AND VARIANT MICROBE DISINFECTANT CONTAINING CHLOROUS ACID AQUEOUS SOLUTION” (HONBU SANKEI CO., LTD., priority 2013, published 2016)
Read-outs that look alike come from different tables or passages of the source.

Tests used:
[1] = tested on: contaminating microbes in urine (MDRP); test: Growth suppressing effect against contaminating microbes in urine (MDRP); assay type: cell-based, Pseudomonas aeruginosa; details: 10 ppm, 50 ppm, 100 ppm, FIGS. 5 and 6
Method: (§1) The testing method was in accordance with the above-described Examples. The samples prepared as stated above were used.
(§2) Tests were conducted twice using similar samples.

MRSA = test: Growth suppressing effect against contaminating microbes in urine (MRSA); assay type: cell-based, Staphylococcus aureus; details: 10 ppm, 50 ppm, 100 ppm, FIG. 6
Method: as §1, §2

[2] = tested on: Escherichia coli O157 sakai strain (1996, RIMD0509952) on chicken meat (breast meat)
[3] = tested on: Campylobacter jejuni JCM2013 on chicken meat (breast meat)
Method: 1) Enterohemorrhagic Escherichia coli O157: Escherichia coli O157 sakai strain (1996, RIMD0509952) 2) Campylobacter: Campylobacter jejuni JCM2013
2) Campylobacter: Campylobacter jejuni JCM2013 (selected medium: CCDA plate medium)
The selected medium was streaked. A single colony of tested microbes cultured for 48 hours at 37° C. in microaerophilic conditions was extracted with a platinum loop. The colony was then inoculated in a 50 mL×3 BHI medium, shaken and cultured under aerobic conditions for 48 hours at 37° C. (shake rate: 100 rpm).
Chicken meat (breast meat): About 2 kg of domestic (location unknown) chicken breast meat that was purchased the day before the tests was used.
Each cultured microbial solution was centrifuged (rate of centrifugation: 6000 rpm). The liquid medium of the supernatant was disposed. Then, the microbial solution prepared by diluting with sterilized saline to approximately 10^7 was put into a manually operated spray in the same amount to make a 10^6 microbe suspension.

[4] = tested on: Microbes of the genus Paenibacillus; test: Microbe disinfecting effect on microbes isolated from isolator, Paenibacillus; assay type: cell-based; details: average ± S.D.
Method: (§3) In the present Example, since the isolator for raising microbe-free mice was contaminated by environmental microbes, microbes were isolated from the isolator, and microbe disinfecting effects were examined in vitro using various antiseptics of interest.
(§4) Three species of microbes were isolated to analyze 16SrDNA.
(§5) (1) A single colony of each isolated microbe that was cultured in a BHI agar medium was cultured for two days at 37° C. in 5 mL of BHI medium. (2) After collecting microbes by centrifuging (3000×g, 4° C., 10 min) the culturedmicrobial solution, the microbes were washed twice with sterile saline (0.85%) to prepare a microbial solution of about 10^7 CFU/ml (Inoculam value). (3) Each agent of interest was prepared by diluting with sterile ion exchange water to have a predetermined concentration. 9 mL of each diluent was dispensed into a sterilized test tube. (4) 1 mL of the microbial solution prepared in (2) was added to the agent-containing test tube. A vortex mixer was used to mix well. (5) 1 mL was sampled from the test tube of (4) at a predetermined time. The sampling was added to and mixed with 0.05 mol/L sodium thiosulfate solution for neutralization. (6) 1 mL of the solution after the neutralization treatment was spread on a petri dish. The solution was pour-plate cultured for 24 hours at 37° C. in a BHI agar medium. The number of surviving microbes that had grown was measured.
(§6) The operation was performed three times, and microbial disinfection was evaluated by average value±standard deviation (S. D.)

[5] = tested on: Microbes of the genus Bacillus; test: Microbe disinfecting effect on microbes isolated from isolator, Bacillus; assay type: cell-based; details: average ± S.D.
Method: as §3, §4
as §5, with “(2) After collecting microbes by centrifuging (3000×g, 4° C., 10 min) the culturedmicrobial solution, the microbes were washed twice with sterile saline (0.85%) to prepare a microbial solution of about 10^7 CFU/ml (Inoculam value).” left out
as §6

[6] = Sampling 3: after soaking 30 minutes at 400 ppm, raw material:liquid = 1:10
[7] = Sampling 4: after soaking 30 minutes at 400 ppm, washing and draining
[8] = Sampling 5: after soaking 30 minutes at 400 ppm, washing, storage for 24 hours at 4° C.

OCl [Sodium hypochlorite]
growth suppressing effect [1]: growth suppressing effect
growth suppressing effect (MRSA): growth suppressing effect
number of E. coli O-157 on the chicken meat [2, 6]: 3.3 × 10^4 cfu/mL
number of E. coli O-157 on the chicken meat [2, 7]: 1.6 × 10^4 cfu/mL
number of E. coli O-157 on the chicken meat [2, 8]: 5.0 × 10^4 cfu/mL
number of Campylobacter on the chicken meat [3, 6]: 2.5 × 10^5 cfu/mL
number of Campylobacter on the chicken meat [3, 7]: 3.2 × 10^5 cfu/mL
number of Campylobacter on the chicken meat [3, 8]: 4.8 × 10^5 cfu/mL
number of surviving microbes ([4]; 200 ppm, 5 min): 4.80 ± 0.25 log10 cfu/mL
number of surviving microbes ([4]; 200 ppm, 10 min): 4.86 ± 0.41 log10 cfu/mL
number of surviving microbes ([4]; 200 ppm, 30 min): 3.75 ± 0.53 log10 cfu/mL
number of surviving microbes ([4]; 500 ppm, 5 min): 4.07 ± 0.12 log10 cfu/mL
number of surviving microbes ([4]; 500 ppm, 10 min): 3.61 ± 0.09 log10 cfu/mL
number of surviving microbes ([4]; 500 ppm, 30 min): 3.61 ± 0.26 log10 cfu/mL
number of surviving microbes ([4]; 1000 ppm, 5 min): <2.00 log10 cfu/mL
number of surviving microbes ([4]; 1000 ppm, 10 min): <2.00 log10 cfu/mL
number of surviving microbes ([4]; 1000 ppm, 30 min): <2.00 log10 cfu/mL
number of surviving microbes ([5]; 200 ppm, 5 min): 5.60 ± 0.22 log10 cfu/mL
number of surviving microbes ([5]; 200 ppm, 10 min): 5.53 ± 0.62 log10 cfu/mL
number of surviving microbes ([5]; 200 ppm, 30 min): 5.34 ± 0.34 log10 cfu/mL
number of surviving microbes ([5]; 500 ppm, 5 min): 5.55 ± 0.45 log10 cfu/mL
number of surviving microbes ([5]; 500 ppm, 10 min): 5.49 ± 0.28 log10 cfu/mL
number of surviving microbes ([5]; 500 ppm, 30 min): 4.85 ± 0.32 log10 cfu/mL
number of surviving microbes ([5]; 1000 ppm, 5 min): 3.55 ± 0.46 log10 cfu/mL

Sodium chlorite
growth suppressing effect [1]: growth suppressing effect
growth suppressing effect (MRSA): growth suppressing effect
